In brackets after ≈: the same amount, converted by molar mass.
What was measured:
[1] = X-ray diagnostic imaging of the GI tract; format: in vivo, rats; details: for Imaging efficacy, stabilized with Pluronic F88: milled with F88
Method: X-ray diagnostic imaging was performed in anesthetized rats with the exception of G05-R1 samples which were imaged in fasted and anesthetized ferrets. Images were obtained using the Siemens C-Arm Siremobil 3U x-ray unit. The imaging dose was 10 ml/kg administered via gastric intubation to the anesthetized animal. X-rays were taken at 15, 30, 45 and 60 minutes and at 1, 2, 5 and 24 hours post-dose. […]
Images were evaluated by the criteria of: coating, homogeneity, rate of gastric emptying and the total transit time. These are considered to be a measure of the stability of the nanosuspension during transit down the GI tract and the ability of the formulation to image the lower gastrointestinal tract. Nanosuspensions were rated excellent when there was a uniform coating with transradiation of long intestinal segments, sufficient radiodensity to delineate anatomical structure, rapid emptying and transit, and stability and homogeneity during GI transit. A plus sign (+) was assigned when imaging in the lower GI was exceptional, a minus sign (-) as given when it was not. […] All other nanosuspensions were compared with this formulation.

Aqueous solubility = format: physicochemical; details: water, Table 3
[2] = X-ray diagnostic imaging of the GI tract; format: in vivo; details: ferrets; milled in Pluronic F127
Method: X-ray diagnostic imaging was performed in anesthetized rats with the exception of G05-R1 samples which were imaged in fasted and anesthetized ferrets. Images were obtained using the Siemens C-Arm Siremobil 3U x-ray unit. The imaging dose was 10 ml/kg administered via gastric intubation to the anesthetized animal. X-rays were taken at 15, 30, 45 and 60 minutes and at 1, 2, 5 and 24 hours post-dose. A 10-15 ml volume of air was introduced to the animal at 30 minutes to produce a double contrast image.
Images were evaluated by the criteria of: coating, homogeneity, rate of gastric emptying and the total transit time. These are considered to be a measure of the stability of the nanosuspension during transit down the GI tract and the ability of the formulation to image the lower gastrointestinal tract. Nanosuspensions were rated excellent when there was a uniform coating with transradiation of long intestinal segments, sufficient radiodensity to delineate anatomical structure, rapid emptying and transit, and stability and homogeneity during GI transit. A plus sign (+) was assigned when imaging in the lower GI was exceptional, a minus sign (-) as given when it was not. The nanosuspension of WIN 8883 milled in Pluronic F127, was considered to be excellent for both upper and lower GI imaging in both rats and ferrets. All other nanosuspensions were compared with this formulation.

With `CCCCC(CC)COC(=O)CC(C(=O)OCC(CC)CCCC)S(=O)(=O)O` (stereo not shown) [DOSS, dioctylsulfosuccinate] the “Stabilizing effect on imaging efficacy” value ([1]; stabilizer for WIN 8883 nanosuspension) was “fair”.
For `CCOC(=O)c1c(I)c(NC(C)=O)c(I)c(NC(C)=O)c1I` [WIN 8883, Ethyl 3,5-bis(acetylamino)-2,4,6-triiodobenzoate], the “Imaging efficacy, overall” value [1] was “excellent”, the “Imaging efficacy, stabilized with Pluronic F88” value (“Imaging efficacy, stabilized” for short) [1] was “excellent imaging, and then only in the upper GI” and the “Upper and lower GI imaging” value ([1]; rats, milled in Pluronic F127) was “excellent”. The solubility (Aqueous solubility) was under 5 µg/mL and the “Upper and lower GI imaging” value [2] was “excellent”.
In the case of `CCOC(=O)c1c(I)c(NC(C)=O)c(I)c(C(=O)OCC)c1I` [WIN 59316, Diethyl 5-acetylamino-2,4,6-triiodo-isophthalate], the “Imaging efficacy, overall” value [1] is reported as “fair”, the “Lower GI imaging” value [1] is reported as “imaging well in the lower GI tract” and the solubility (Aqueous solubility) is reported as 1 µg/mL (≈ 1.52 µM).
In the case of `CCOC(=O)CCCCCOC(=O)c1c(I)c(NC(C)=O)c(I)c(NC(C)=O)c1I` [WIN 67722, 6-Ethoxy-6-oxohexyl 3,5-bis(acetylamino)-2,4,6-triiodobenzoate], the “Lower GI imaging” value [1] is reported as “poor”, the “Upper GI imaging” value [1] is reported as “good” and the solubility (Aqueous solubility) is reported as 2 µg/mL (≈ 2.65 µM).
With `COc1ccc(COC(=O)c2c(I)c(NC(C)=O)c(I)c(NC(C)=O)c2I)cc1` [WIN 67754, 3,5-Bis-acetylamino-2,4,6-triiodo-benzoic acid 4-methoxy-benzyl ester] the “Imaging efficacy, overall” value [1] was “good”, the “Lower GI imaging” value [1] was “exceptional” and the solubility (Aqueous solubility) was 15 µg/mL (≈ 20.4 µM).
For `CC(=O)Nc1c(I)c(NC(C)=O)c(I)c(C(=O)OCc2ccc(C(=O)OC(C)C)cc2)c1I` [WIN 67956, 3,5-Bis-acetylamino-2,4,6-triiodo-benzoic acid 4-isopropyl benzoate ester], the Gastric emptying [1] was “very rapid gastric emptying”, the “Imaging efficacy, overall” value [1] was “good” and the Coating ([1]; repeated with air given at 15 minutes to induce double contrast) was “No improvement in coating”. The solubility (Aqueous solubility) was 1 µg/mL (≈ 1.27 µM).
In the case of `CCOC(=O)C(C)(OC(=O)c1c(I)c(NC(C)=O)c(I)c(NC(C)=O)c1I)C(=O)OCC` [WIN 67975], the “Imaging efficacy, overall” value [1] is reported as “fair” and the solubility (Aqueous solubility) is reported as 8 µg/mL (≈ 10.2 µM).
In the case of `CC(=O)Nc1c(I)c(NC(C)=O)c(I)c(C(=O)OCCCCCC(=O)OC(C)C)c1I` [WIN 67995, 3,5,-Bis-acetylamino-2,4,6-triiodo-benzoic acid 5-isopropoxycarbonyl-pentylester], the “Lower GI imaging” value [1] is reported as “poor”, the “Upper GI imaging” value [1] is reported as “good” and the solubility (Aqueous solubility) is reported as 1 µg/mL (≈ 1.3 µM).
With `CC(=O)Nc1c(I)c(NC(C)=O)c(I)c(C(=O)OC(C(=O)OC(C)C)C(=O)OC(C)C)c1I` [WIN 68165, Propanedioic Acid, [[3,5-bis-(acetylamino)-2,4,6-triiodo-benzoyl]oxy]-bis(1-methylethyl)ester] the “Imaging efficacy, overall” value [1] was “fair” and the solubility (Aqueous solubility) was 1 µg/mL (≈ 1.25 µM).
In the case of `CCOC(=O)C(CC)OC(=O)c1c(I)c(NC(C)=O)c(I)c(C(=O)OC(CC)C(=O)OCC)c1I` (stereo not shown) [WIN 68183, Bis-[1-(ethoxycarbonyl)propyl]-2,4,6-triiodo-5-acetylamino-isophthalate], the “Imaging efficacy, overall” value [1] is reported as “excellent”, the “Lower GI imaging” value [1] is reported as “not as definitive as with WIN 8883” and the “Imaging efficacy, stabilized” value [1] is reported as “loss of efficacy”. The solubility (Aqueous solubility) was under 1 µg/mL.
With `CCc1c(I)c(CC)c(I)c(CC)c1I` [WIN 68756, 1,3,5-Triethyl-2,4,6-triiodobenzene] the “Imaging efficacy, overall” value [1] was “excellent”, the “Lower GI imaging” value [1] was “not as definitive as with WIN 8883” and the “Imaging efficacy, stabilized” value [1] was “loss of efficacy”. For the same compound, the solubility (Aqueous solubility) was under 1 µg/mL.

Source: US5466440A, “Formulations of oral gastrointestinal diagnostic X-ray contrast agents in combination with pharmaceutically acceptable clays” (Eastman Kodak Company, priority 1994, dated 1995)
